The values that follow are results of earlier work, collected in US12324430B2, “Topical antiseptic system” (INFECTION CONTAINMENT COMPANY, LLC, priority 2015, dated 2025).

On to zinc picolinate, for which the “water solubility (in words)” value is on record as “moderately water soluble”.
zinc glycerate: the “water solubility (in words)” value is on record as “moderately water soluble”.
